Test systems include HOP-62; OVCAR-8; Malme-3M; SNB-19; NCI-H226; RPMI-8226; SR; SF-539; OVCAR-5; M14; HCT-15; RXF 393; HOP-92; MOLT-4; SK-OV-3; KM12; SK-MEL-5; SW-620.
Assay in all cases: NCI tumour cell line growth inhibition, 48 h

Molecules are shown by their SMILES.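 Following 48 hours of exposure in 96-well plates, responses at five concentrations were used to interpolate endpoints linearly. At the GI50, growth is halved.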 Calls of active or inactive are those of the source. Rule as the data show it: active = GI50 up to about 1.1 µM and inactive = higher. A value given as a limit tells only on which side of the number the result lay.

This note sets out measurements from ChEMBL document CHEMBL1201862, “PubChem BioAssay data set” (2004).

As for `N#Cc1ccc(Sc2ccccc2)cc1C#N`, the GI50 in the assay with HOP-62 is 36.9 µM (inactive); in the assay on OVCAR-8 it was 31 µM (inactive); with Malme-3M it was > 100 µM (inactive); with SNB-19, 39.3 µM (inactive); in the assay with NCI-H226, > 100 µM (inactive); in the assay on RPMI-8226, 28.1 µM (inactive). Also, the GI50 with SR was 18.7 µM (inactive); with SF-539, 19.7 µM (inactive); with OVCAR-5, > 100 µM (inactive); in the assay with M14, > 100 µM (inactive); with HCT-15, 16 µM; in the assay on RXF 393, 33 µM (inactive). The GI50 in the assay with HOP-92 is 30.1 µM (inactive); in the assay on MOLT-4, > 100 µM (inactive); in the assay on SK-OV-3, 54 µM (inactive); in the assay with KM12, > 100 µM (inactive); in the assay with SK-MEL-5, > 100 µM (inactive).

Take `OC(c1ccccc1)(c1ccccc1)c1ccncc1`: the GI50 in the assay on HOP-62, in the assay with OVCAR-8, in the assay on Malme-3M, in the assay on SNB-19, in the assay with NCI-H226 and in the assay on RPMI-8226 was > 100 µM (inactive) in each case. Also, the GI50 in the assay on SR is > 100 µM (inactive); in the assay on SF-539 it was 59.4 µM (inactive); in the assay with OVCAR-5 it was > 100 µM (inactive); in the assay on M14, > 100 µM (inactive); with HCT-15 it was more than 100 µM; in the assay on RXF 393, > 100 µM (inactive). For the same molecule, the GI50 with HOP-92 is 74 µM (inactive); in the assay with MOLT-4, > 100 µM (inactive); with SK-OV-3 it was > 100 µM (inactive); with KM12, > 100 µM (inactive); in the assay with SW-620, > 100 µM (inactive); with SK-MEL-5, > 100 µM (inactive).

`C/C(=N\NC(C)(C)C)c1sc(-c2nc(C)c(/C(C)=N/NC(C)(C)C)s2)nc1C`: the GI50 with OVCAR-8, with Malme-3M, with SNB-19, in the assay with NCI-H226, in the assay on RPMI-8226 and in the assay with SR was > 100 µM (inactive) each time. In addition, the GI50 was > 100 µM (inactive) in the assay on SF-539; > 100 µM (inactive) in the assay with M14; more than 100 µM in the assay with HCT-15; > 100 µM (inactive) in the assay on RXF 393; > 100 µM (inactive) with HOP-92; > 100 µM (inactive) with MOLT-4. For the same molecule, the GI50 in the assay on SK-OV-3, with SW-620 and with SK-MEL-5 was > 100 µM (inactive) each time.

With `CCOC(=O)C/C(N)=C(\C#N)C(=O)OCC`, the GI50 with OVCAR-8, in the assay with Malme-3M, in the assay on SNB-19, with NCI-H226, in the assay with RPMI-8226 and in the assay with SR was > 100 µM (inactive) each time. The GI50 in the assay with SF-539 was > 100 µM (inactive); in the assay on OVCAR-5, > 100 µM (inactive); in the assay on M14 it was > 100 µM (inactive); in the assay with HCT-15, more than 100 µM; in the assay with RXF 393 it was > 100 µM (inactive); with HOP-92, > 100 µM (inactive). Moreover, the GI50 in the assay with MOLT-4, with SK-OV-3, with KM12, with SW-620 and in the assay on SK-MEL-5 was > 100 µM (inactive) in each case.

`N#Cc1ccc(/C=N\N2C(=O)c3ccccc3C2=O)cc1`: the GI50 with HOP-62, with OVCAR-8, in the assay with Malme-3M, in the assay with SNB-19, in the assay with NCI-H226 and in the assay on RPMI-8226 was > 100 µM (inactive) each time. In addition, the GI50 with SR is > 100 µM (inactive); in the assay with SF-539 it was > 100 µM (inactive); in the assay on OVCAR-5, > 100 µM (inactive); in the assay with M14, > 100 µM (inactive); in the assay on HCT-15 it was more than 100 µM; in the assay with RXF 393, > 100 µM (inactive). Moreover, the GI50 with HOP-92, in the assay with MOLT-4, with KM12, with SW-620 and with SK-MEL-5 was > 100 µM (inactive) in each case.

On to `Cc1cc(C)c(/C=N/NS(=O)(=O)c2ccccc2)c(C)c1`, for which the GI50 was > 100 µM (inactive) in the assay with HOP-62; 71.6 µM (inactive) in the assay on OVCAR-8; > 100 µM (inactive) with Malme-3M; > 100 µM (inactive) in the assay on NCI-H226; 54.5 µM (inactive) in the assay with RPMI-8226; 31.4 µM (inactive) with SR. Also, the GI50 in the assay with SF-539 was 66.8 µM (inactive); with OVCAR-5 it was > 100 µM (inactive); with M14, > 100 µM (inactive); in the assay with HCT-15, more than 100 µM; in the assay with RXF 393, 44.9 µM (inactive); with HOP-92 it was 36.3 µM (inactive). The GI50 with MOLT-4 is 44.7 µM (inactive); in the assay on SK-OV-3 it was > 100 µM (inactive); in the assay with KM12, > 100 µM (inactive); in the assay on SW-620, > 100 µM (inactive); in the assay with SK-MEL-5, > 100 µM (inactive).

Regarding `C1=CC=C2NCCCCCC/N=C3\C=CC=CC=C3NCCc3cccc(c3)CC/N=C/2C=C1`, the GI50 is 10 µM (inactive) with HOP-62; 14.8 µM (inactive) with OVCAR-8; 35.3 µM (inactive) with Malme-3M; 26.5 µM (inactive) with SNB-19; 32.5 µM (inactive) in the assay with NCI-H226; 7.45 µM (inactive) in the assay on RPMI-8226. The GI50 in the assay with SR was 9.82 µM (inactive); in the assay with SF-539 it was 10.8 µM (inactive); in the assay with OVCAR-5 it was 14.4 µM (inactive); in the assay with M14 it was 11 µM (inactive); in the assay on HCT-15, 15.8 µM; in the assay with RXF 393 it was 13.4 µM (inactive). The GI50 in the assay on HOP-92 was 23.7 µM (inactive); in the assay on MOLT-4 it was 7.78 µM (inactive); with SK-OV-3, 25.5 µM (inactive); with KM12 it was 14.7 µM (inactive); in the assay on SW-620, 4.67 µM (inactive).

Turning to `COc1ccc(C)cc(O)c1=O`, the GI50 with HOP-62 is 54.6 µM (inactive); with Malme-3M it was 57.1 µM (inactive); with SNB-19, 95.1 µM (inactive); in the assay on NCI-H226, > 100 µM (inactive); with RPMI-8226, 39.6 µM (inactive); with SR, 5.28 µM (inactive). Besides, the GI50 is 42.5 µM (inactive) in the assay with SF-539; 68.4 µM (inactive) in the assay on OVCAR-5; 21.2 µM (inactive) in the assay on M14; more than 100 µM with HCT-15; 39.7 µM (inactive) in the assay with RXF 393; 26.2 µM (inactive) in the assay on HOP-92. The GI50 was 9.06 µM (inactive) in the assay on MOLT-4; > 100 µM (inactive) with SK-OV-3; > 100 µM (inactive) in the assay on KM12; 44 µM (inactive) with SW-620; 67.8 µM (inactive) with SK-MEL-5.

For `O=C1OC(CC(=O)c2ccc(Cl)cc2Cl)C(Cl)=C1Cl` (configuration not stated), the GI50 is > 59.2 µM (inactive) with HOP-62; 27.2 µM (inactive) with OVCAR-8; 19.7 µM (inactive) in the assay with Malme-3M; > 49.2 µM (inactive) in the assay on SNB-19; 30 µM (inactive) in the assay with NCI-H226; 26.9 µM (inactive) in the assay on RPMI-8226. Further, the GI50 in the assay on SR was 26.5 µM (inactive); in the assay on SF-539 it was 22 µM (inactive); in the assay on OVCAR-5, > 45.1 µM (inactive); in the assay with M14, 27.2 µM (inactive); with HCT-15, 29.3 µM; with RXF 393, 18.2 µM (inactive). Besides, the GI50 in the assay with HOP-92 is 18.9 µM (inactive); in the assay on MOLT-4 it was 24.8 µM (inactive); in the assay with SK-OV-3, > 36.1 µM (inactive); with KM12, > 100 µM (inactive); with SW-620, 19.4 µM (inactive); in the assay on SK-MEL-5, 45.6 µM (inactive).

On to `CC(=O)NC(CCCNC(=O)NCCCl)C(=O)NCc1ccccc1` (configuration not stated), for which the GI50 in the assay with HOP-62, in the assay with OVCAR-8, with Malme-3M, in the assay with SNB-19, in the assay on NCI-H226 and in the assay on RPMI-8226 was > 100 µM (inactive) in each case. Further, the GI50 in the assay with SR was > 100 µM (inactive); with SF-539, > 100 µM (inactive); in the assay on M14, > 100 µM (inactive); in the assay with HCT-15, more than 100 µM; with RXF 393, > 100 µM (inactive); in the assay with HOP-92, > 100 µM (inactive). The GI50 with MOLT-4, in the assay on KM12, with SW-620 and in the assay with SK-MEL-5 was > 100 µM (inactive) throughout.

On to `CCOP(=O)(OCC)/C(C#N)=C/c1ccc[nH]1`, for which the GI50 with HOP-62, in the assay with OVCAR-8, in the assay with Malme-3M, in the assay on SNB-19, in the assay on NCI-H226 and with RPMI-8226 was > 100 µM (inactive) each time. Moreover, the GI50 was > 100 µM (inactive) in the assay with SR; > 100 µM (inactive) in the assay with SF-539; > 100 µM (inactive) in the assay on OVCAR-5; > 100 µM (inactive) in the assay with M14; more than 100 µM with HCT-15; > 100 µM (inactive) in the assay with RXF 393. In addition, the GI50 in the assay with HOP-92, in the assay with MOLT-4, in the assay with SK-OV-3, in the assay on KM12, with SW-620 and with SK-MEL-5 was > 100 µM (inactive) each time.

In the case of `CN(c1ccccc1)C1C(=O)N(c2ccccc2)C1/C=C/c1ccccc1` (configuration not stated), the GI50 in the assay with OVCAR-8, with Malme-3M, in the assay with SNB-19, in the assay on NCI-H226, in the assay with RPMI-8226 and in the assay with SR was > 100 µM (inactive) in each case. Also, the GI50 with SF-539, with OVCAR-5, in the assay on RXF 393, with HOP-92, in the assay on MOLT-4 and in the assay on SK-OV-3 was > 100 µM (inactive) throughout. Besides, the GI50 in the assay with KM12, with SW-620 and with SK-MEL-5 was > 100 µM (inactive) throughout.
